# In US20250163104A1, “MACROCYCLIC IMMUNOMODULATORS” (priority 2021, published 2025):
# Where a SMILES comes first, the peptide text is derived from it. Bridges are numbered along the chain shown (N, C = ends). [ ]: non-standard residue; d: D form. The star is where a group is joined. ξ: configuration not given here. Phe(4-COOH) = N[C@@H](Cc1ccc(C(=O)O)cc1)C(=O)O; Asp(3,3-Me2) = CC(C)(C(=O)O)[C@H](N)C(=O)O; Bip = N[C@@H](Cc1ccc(-c2ccccc2)cc1)C(=O)O; Phe(3-Me) = Cc1cccc(C[C@H](N)C(=O)O)c1; Phe(4-Me) = Cc1ccc(C[C@H](N)C(=O)O)cc1; Val(3-OH) = CC(C)(O)[C@H](N)C(=O)O; Benzoyl(4-F) = O=C(c1ccc(F)cc1)*; 4Pal = N[C@@H](Cc1ccncc1)C(=O)O; 3Thi = N[C@@H](Cc1ccsc1)C(=O)O; Cha = N[C@@H](CC1CCCCC1)C(=O)O; Cit = NC(=O)NCCC[C@H](N)C(=O)O; Thr(3ξ) = CC(O)[C@H](N)C(=O)O; Carboxymethyl = O=C(O)C*; Nle = CCCC[C@H](N)C(=O)O; Orn = NCCC[C@H](N)C(=O)O; Pra = C#CC[C@H](N)C(=O)O; Dab = NCC[C@H](N)C(=O)O; Nva = CCC[C@H](N)C(=O)O; Dap = NC[C@H](N)C(=O)O; Propargyl = C#CC*
# Molecular target: T1, human PD-1 / PD-L1-Ig binding on Jurkat cell line over-expressing human PD-1 (Jurkat-PD-1) (Homo sapiens, UniProt Q15116)
# T1 construct: expressed in transfected cells; host or cells: Jurkat
# T1 sequence (Q15116 25-288): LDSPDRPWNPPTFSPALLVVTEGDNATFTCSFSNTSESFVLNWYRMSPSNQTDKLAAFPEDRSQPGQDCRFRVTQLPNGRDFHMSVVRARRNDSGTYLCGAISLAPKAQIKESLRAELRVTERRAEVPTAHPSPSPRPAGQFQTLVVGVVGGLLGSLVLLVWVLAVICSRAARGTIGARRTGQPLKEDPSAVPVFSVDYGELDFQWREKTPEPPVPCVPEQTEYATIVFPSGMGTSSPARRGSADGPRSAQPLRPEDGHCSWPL
# Assay: Jurkat-PD-1 Cell Binding High-Content Screening Assay (CBA)
# Assay type: cell-based
# Conditions: Jurkat-PD-1 cells, PE-labeled PD-L1-Ig 20 nM final; read-out: Jurkat HPD1_PDL1 IC50
# In short: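 Compounds were preincubated with Jurkat-hPD-1 cells in DMEM plus 10% fetal calf serum for 2 h at 37° C. Phycoerythrin-labeled PD-L1-Ig (20 nM final) was then added for 1 hour. Cells were fixed in 4% paraformaldehyde with Hoechst 33342, and bound fluorescence was quantified by high-content imaging.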
row,SMILES,IC50
1,C#CCOc1ccc(C[C@@H]2NC(=O)[C@H](Cc3ccc(-c4ccccc4)cc3)NC(=O)[C@H](Cc3ccc(OCC(=O)O)cc3)NC(=O)[C@H](Cc3cccc(C)c3)NC(=O)[C@H](CC(=O)O)NC(=O)[C@H](Cc3ccc(OCC(=O)O)cc3)NC(=O)[C@H](CCC)NC(=O)CSC[C@@H](C(=O)N[C@@H](CCN)C(N)=O)NC(=O)[C@H](CCC(=O)O)NC(=O)[C@H](C(C)C)NC(=O)[C@H](CC3CCCCC3)NC(=O)[C@H](CCN)NC(=O)[C@@H](CC(C)C)NC(=O)[C@H](CCCN)NC2=O)cc1 [Compound 1837] ({CH2CO}-[Nva]Y(Carboxymethyl)D[Phe(3-Me)]Y(Carboxymethyl)[Bip]Y(Propargyl)[Orn][dL][Dab][Cha]VEC[Dab]-NH2; thioether N-14),8.3 nM
2,CC(C)[C@@H]1NC(=O)[C@H](Cc2c[nH]c3ccccc23)NC(=O)[C@H](CC(=O)O)NC(=O)[C@H](Cc2ccc(C(=O)O)cc2)NC(=O)[C@H](Cc2ccc(OCC(=O)O)cc2)NC(=O)CSC[C@@H](C(=O)N[C@@H](C)C(N)=O)NC(=O)[C@H]([C@@H](C)O)NC(=O)[C@H](C(C)C)NC(=O)[C@H](CC2CCCCC2)NC(=O)[C@H](CCN)NC(=O)[C@@H](Cc2ccc(O)cc2)NC(=O)[C@H](CCCN)NC(=O)[C@H](CCC(=O)O)NC(=O)[C@H](Cc2ccc(-c3ccccc3)cc2)NC1=O [Compound 1449] ({CH2CO}-Y(Carboxymethyl)[Phe(4-COOH)]DWV[Bip]E[Orn][dY][Dab][Cha]VTCA-NH2; thioether N-14),32.9 nM
3,CCCC[C@@H]1NC(=O)[C@H](CCN)NC(=O)[C@@H](CC(C)C)NC(=O)[C@H](CCCN)NC(=O)[C@H](C(C)C)NC(=O)[C@H](Cc2ccc(-c3ccccc3)cc2)NC(=O)[C@H](C(C)C)NC(=O)[C@H](Cc2cccc(C)c2)NC(=O)[C@H](CC(=O)O)NC(=O)[C@H](Cc2ccc(C(=O)O)cc2)NC(=O)[C@H](CN)NC(=O)CSC[C@@H](C(=O)N[C@@H](C)C(N)=O)NC(=O)[C@H]([C@@H](C)O)NC(=O)[C@H](C(C)C)NC1=O [Compound 1205] ({CH2CO}-[Dap][Phe(4-COOH)]D[Phe(3-Me)]V[Bip]V[Orn][dL][Dab][Nle]VTCA-NH2; thioether N-14),10.7 nM
4,Cc1cccc(C[C@@H]2NC(=O)[C@H](CC(=O)O)NC(=O)[C@H](Cc3ccc(C(=O)O)cc3)NC(=O)[C@H](CN)NC(=O)CSC[C@@H](C(=O)N[C@@H](C)C(N)=O)NC(=O)[C@H]([C@@H](C)O)NC(=O)[C@H](C(C)C)NC(=O)[C@H](CC(C)C)NC(=O)[C@H](CCN)NC(=O)[C@@H](CC(C)C)NC(=O)[C@H](CCCN)NC(=O)[C@H](C(C)C)NC(=O)[C@H](Cc3ccc(-c4ccccc4)cc3)NC(=O)[C@H](C(C)C)NC2=O)c1 [Compound 1219] ({CH2CO}-[Dap][Phe(4-COOH)]D[Phe(3-Me)]V[Bip]V[Orn][dL][Dab]LVTCA-NH2; thioether N-14),5.4 nM
5,C#CC[C@H](NC(=O)[C@H](CCN)NC(=O)[C@@H]1CSCC(=O)N[C@@H](CCN)C(=O)N[C@@H](Cc2ccc(C(=O)O)cc2)C(=O)N[C@@H](CC(=O)O)C(=O)N[C@@H](Cc2cccc(C)c2)C(=O)N[C@@H](Cc2ccc(C(=O)O)cc2)C(=O)N[C@@H](Cc2ccc(-c3ccccc3)cc2)C(=O)N[C@@H](Cc2ccc(C(=O)O)cc2)C(=O)N[C@@H](CCCN)C(=O)N[C@H](CC(C)C)C(=O)N[C@@H](CCN)C(=O)N[C@@H](CC2CCCCC2)C(=O)N[C@@H](C(C)(C)O)C(=O)N[C@@H](CO)C(=O)N1)C(N)=O [Compound 1865] ({CH2CO}-[Dab][Phe(4-COOH)]D[Phe(3-Me)][Phe(4-COOH)][Bip][Phe(4-COOH)][Orn][dL][Dab][Cha][Val(3-OH)]SC[Dab][Pra]-NH2; thioether N-14),12 nM
6,CC(C)C[C@@H]1NC(=O)[C@H](CCN)NC(=O)[C@@H](CC(C)C)NC(=O)[C@H](CCCN)NC(=O)[C@H](CCCNC(N)=O)NC(=O)[C@H](Cc2ccc(-c3ccccc3)cc2)NC(=O)[C@H](C(C)C)NC(=O)[C@H](Cc2c[nH]c3ccccc23)NC(=O)[C@H](CC(=O)O)NC(=O)[C@H](Cc2ccc(O)cc2)NC(=O)[C@H](CC(N)=O)NC(=O)CSC[C@@H](C(=O)NCC(N)=O)NC(=O)[C@H](CO)NC(=O)[C@H](C(C)C)NC1=O [Compound 1112] ({CH2CO}-NYDWV[Bip][Cit][Orn][dL][Dab]LVSCG-NH2; thioether N-14),17.1 nM

# More lines, now with the values ahead:
row,IC50,SMILES
1,40.2 nM,Cc1cccc(C[C@@H]2NC(=O)[C@H](CC(=O)O)NC(=O)[C@H](Cc3ccc(OCC(=O)O)cc3)NC(=O)[C@H](CNC(=O)c3ccc(F)cc3)NC(=O)CSC[C@@H](C(N)=O)NC(=O)[C@H]([C@@H](C)O)NC(=O)[C@H](C(C)C)NC(=O)[C@H](CC3CCCCC3)NC(=O)[C@H](CCN)NC(=O)[C@@H](CC(C)C)NC(=O)[C@H](CCCN)NC(=O)[C@H](Cc3ccc(OCC(=O)O)cc3)NC(=O)[C@H](Cc3ccc(-c4ccccc4)cc3)NC(=O)[C@H](Cc3ccc(O)cc3)NC2=O)c1 [Compound 2048] ({CH2CO}-[Dap](Benzoyl(4-F))Y(Carboxymethyl)D[Phe(3-Me)]Y[Bip]Y(Carboxymethyl)[Orn][dL][Dab][Cha]VTC-NH2; thioether N-14)
2,2.7 nM,Cc1cccc(C[C@@H]2NC(=O)[C@H](CC(=O)O)NC(=O)[C@H](Cc3ccc(C(=O)O)cc3)NC(=O)[C@H](Cc3ccncc3)NC(=O)CSC[C@@H](C(=O)N[C@@H](CCN)C(N)=O)NC(=O)[C@H](CO)NC(=O)[C@H](C(C)(C)O)NC(=O)[C@H](CC3CCCCC3)NC(=O)[C@H](CCN)NC(=O)[C@@H](CC(C)C)NC(=O)[C@H](CCCN)NC(=O)[C@H](Cc3ccc(OCC(=O)O)cc3)NC(=O)[C@H](Cc3ccc(-c4ccccc4)cc3)NC(=O)[C@H](Cc3ccc(OCC(=O)O)cc3)NC2=O)c1 [Compound 2622] ({CH2CO}-[4Pal][Phe(4-COOH)]D[Phe(3-Me)]Y(Carboxymethyl)[Bip]Y(Carboxymethyl)[Orn][dL][Dab][Cha][Val(3-OH)]SC[Dab]-NH2; thioether N-14)
3,5.9 nM,CC(C)C[C@H]1NC(=O)[C@H](CCN)NC(=O)[C@H](C(C)C)NC(=O)[C@H](Cc2ccc(-c3ccccc3)cc2)NC(=O)[C@H](C(C)C)NC(=O)[C@H](Cc2c[nH]c3ccccc23)NC(=O)[C@H](CC(=O)O)NC(=O)[C@H](Cc2ccc(OCC(=O)O)cc2)NC(=O)[C@H](Cc2ccsc2)NC(=O)CSC[C@@H](C(=O)N[C@H](CC(N)=O)C(N)=O)NC(=O)[C@H](CCCCN)NC(=O)[C@H](C(C)C)NC(=O)[C@H](CC2CCCCC2)NC(=O)[C@H](CCN)NC1=O [Compound 2612] ({CH2CO}-[3Thi]Y(Carboxymethyl)DWV[Bip]V[Dab][dL][Dab][Cha]VKC[dN]-NH2; thioether N-14)
4,5.7 nM,Cc1cccc(C[C@@H]2NC(=O)[C@H](CC(=O)O)NC(=O)[C@H](Cc3ccc(C(=O)O)cc3)NC(=O)[C@H](Cc3ccncc3)NC(=O)CSC[C@@H](C(=O)N[C@@H](CCN)C(N)=O)NC(=O)[C@H](CO)NC(=O)[C@H](C(C)(C)O)NC(=O)[C@H](CC3CCCCC3)NC(=O)[C@H](CCN)NC(=O)[C@@H](CC(C)C)NC(=O)[C@H](CCCN)NC(=O)[C@H](Cc3ccc(OCC(=O)O)cc3)NC(=O)[C@H](Cc3ccc(-c4ccccc4)cc3)NC(=O)[C@H](Cc3ccc(C(=O)O)cc3)NC2=O)c1 [Compound 2624] ({CH2CO}-[4Pal][Phe(4-COOH)]D[Phe(3-Me)][Phe(4-COOH)][Bip]Y(Carboxymethyl)[Orn][dL][Dab][Cha][Val(3-OH)]SC[Dab]-NH2; thioether N-14)
5,9.2 nM,Cc1ccc(C[C@@H]2NC(=O)[C@H](C(C)O)NC(=O)CSC[C@@H](C(=O)N[C@@H](CCN)C(N)=O)NC(=O)[C@H](Cc3c[nH]cn3)NC(=O)[C@H](C(C)(C)O)NC(=O)[C@H](CC3CCCCC3)NC(=O)[C@H](CCN)NC(=O)[C@@H](CC(C)C)NC(=O)[C@H](CCCN)NC(=O)[C@H](Cc3ccc(OCC(=O)O)cc3)NC(=O)[C@H](Cc3ccc(-c4ccccc4)cc3)NC(=O)[C@H](Cc3ccc(OCC(=O)O)cc3)NC(=O)[C@H](Cc3cccc(C)c3)NC(=O)[C@H](CC(=O)O)NC2=O)cc1 (stereo partly drawn) [Compound 2671] ({CH2CO}-[Thr(3ξ)][Phe(4-Me)]D[Phe(3-Me)]Y(Carboxymethyl)[Bip]Y(Carboxymethyl)[Orn][dL][Dab][Cha][Val(3-OH)]HC[Dab]-NH2; thioether N-14)
6,118 nM,CC(C)C[C@@H]1NC(=O)[C@H](Cc2c[nH]c3ccccc23)NC(=O)[C@H](CC(=O)O)NC(=O)[C@H](Cc2ccc(OCC(=O)O)cc2)NC(=O)[C@H](C(C)O)NC(=O)CSC[C@@H](C(N)=O)NC(=O)[C@H](CO)NC(=O)[C@H](C(C)C)NC(=O)[C@H](CC2CCCCC2)NC(=O)[C@H](CCC(=O)O)NC(=O)[C@@H](CC(C)C)NC(=O)[C@H](Cc2cnc[nH]2)NC(=O)[C@H](C(C)C)NC(=O)[C@H](Cc2ccc(-c3ccccc3)cc2)NC1=O (stereo partly drawn) [Compound 2608] ({CH2CO}-[Thr(3ξ)]Y(Carboxymethyl)DWL[Bip]VH[dL]E[Cha]VSC-NH2; thioether N-14)
7,236 nM,CC(C)[C@@H]1NC(=O)[C@H](Cc2c[nH]c3ccccc23)NC(=O)[C@H](CC(=O)O)NC(=O)[C@H](Cc2ccncc2)NC(=O)[C@H](CN)NC(=O)CSC[C@@H](C(=O)NCC(N)=O)NC(=O)[C@H](C(C)O)NC(=O)[C@H](C(C)C)NC(=O)[C@H](CC2CCCCC2)NC(=O)[C@H](CCN)NC(=O)[C@@H](C)NC(=O)[C@H](CCCN)NC(=O)[C@H](CCN)NC(=O)[C@H](Cc2ccc(-c3ccccc3)cc2)NC1=O (some centres unmarked) [Compound 2543] ({CH2CO}-[Dap][4Pal]DWV[Bip][Dab][Orn][dA][Dab][Cha]V[Thr(3ξ)]CG-NH2; thioether N-14)
8,148 nM,"Cc1cccc(C[C@@H]2NC(=O)[C@H](CC(=O)O)NC(=O)[C@H](Cc3ccc(OCC(=O)O)cc3)NC(=O)[C@H](CCN)NC(=O)CSC[C@@H](C(=O)N[C@H](C(N)=O)C(C)(C)C(=O)O)NC(=O)[C@H](CO)NC(=O)[C@H](C(C)(C)O)NC(=O)[C@H](CC3CCCCC3)NC(=O)[C@H](CCN)NC(=O)[C@@H](CC(C)C)NC(=O)[C@H](CCCN)NC(=O)[C@H](Cc3ccc(OCC(=O)O)cc3)NC(=O)[C@H](Cc3ccc(-c4ccccc4)cc3)NC(=O)[C@H](Cc3ccc(OCC(=O)O)cc3)NC2=O)c1 [Compound 2071] ({CH2CO}-[Dab]Y(Carboxymethyl)D[Phe(3-Me)]Y(Carboxymethyl)[Bip]Y(Carboxymethyl)[Orn][dL][Dab][Cha][Val(3-OH)]SC[Asp(3,3-Me2)]-NH2; thioether N-14)"
